From the METLIN SMRT retention time set (Domingo-Almenara et al. 2019)

Assay: gradient 5% acetonitrile 3 min, to 50% in 2 min, to 85% in 15 min, held 3 min, 100 µL/min
Settings: column: Zorbax Extend-C18 2.1 x 50 mm; eluents: water / acetonitrile, 0.1% formic acid
Outline: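 Using water and acetonitrile that each contained 0.1% formic acid, mixtures of ~100 pure standards were separated at 100 μL/min on a Zorbax Extend-C18 column (2.1 × 50 mm, 1.8 μm). The HPLC fed a quadrupole time-of-flight mass spectrometer working in positive and negative ionization mode, with dead and dwell volumes of 40 μL and 900 μL. Data were acquired over 3 months. Retention time was read from computationally picked adduct peaks after manual inspection of each.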

| SMILES | RP-LC retention time [s] |
| --- | --- |
| CN1C(=O)C2CCCCN2c2ccc(C(=O)NCCCN(C)C3CCCCC3)cc21 (stereo not given) | 655 |
| CCCNC(=O)N1CCCC1c1nc(-c2ccccc2C)no1 (stereo not given) | 863 |
| O=C(c1cccc(Br)c1)N1CCC2(C1)C(=O)Nc1ccccc12 (stereo not given) | 773 |
| CCN1CCC(N(Cc2cccs2)C(=O)Nc2ccccc2Br)CC1 | 679 |
| COC(=O)c1ccc(Cl)cc1NC(=O)N1CCN(C)c2ncccc21 | 700 |
| Cc1cccc2c(=O)n(C3CCN(S(=O)(=O)c4ccc(C(C)C)cc4)CC3)cnc12 | 1120 |
| COc1ccccc1NC(=O)Cn1nc2cc(C)nc(Nc3ccccc3)n2c1=O | 1020 |
| CSc1cccc(NC(=O)Nc2cccc(-c3ccc(N4CCOCC4)nn3)c2)c1 | 742 |
| COc1ccc(-c2nc3ncc4c(=O)n(CCc5ccc(OC)c(OC)c5)ccc4n3n2)cc1 | 854 |
| CCN(CCO)CCCOc1ccc2c(Nc3cc(CC(=O)Nc4cccc(F)c4)[nH]n3)ncnc2c1 | 611 |
| COC(=O)c1ncn2c1C(=O)N(Cc1ccccc1)C(C)(C(=O)NCc1ccccc1)C2 (stereo not given) | 715 |
| CCc1cc(C(=O)N2CCN(CC(C)C)CC2)nc2cc(-c3ccco3)nn12 | 734 |
| CCOc1cc(=O)n2c(c1C(=O)Nc1ccc(Cl)c(C)c1)CCCC2 | 829 |
| CCCn1ccc2sc(C)c(C(=O)N3CCN(c4ccccc4F)CC3)c2c1=O | 916 |
| CN1C(=O)CO[C@@H](C(=O)Nc2ccc(F)cc2F)[C@@H]1c1ccccc1 | 766 |
| COc1ccc2c(ccn2CCNC(=O)C2CC(=O)N(c3n[nH]c4ccccc34)C2)c1 (stereo not given) | 722 |
| O=C(Nc1ccc(N2CCOCC2)nc1)NC1CCCC1 | 585 |
| Cc1cc(C)cc(S(=O)(=O)N2CCC(CN3CCCCCC3)CC2)c1 | 708 |
| CCCCNC(=O)CCC(=O)N1CCCn2nc(-c3cn(C)c4ccccc34)cc21 | 778 |
| Cc1cccc(N2CCN(S(=O)(=O)c3cc(-c4nnc(C5CCC5)o4)co3)CC2)c1 | 1110 |
| COCC1CN(Cc2cn[nH]c2-c2ccc(F)cc2)CCC1(F)F (stereo not given) | 619 |
| Cc1c(C(=O)N2CCN(c3ccccn3)CC2)sc2nc3n(c(=O)c12)CCC3 | 571 |
| Cc1nnc(N2CCC(C(=O)N3CCOCC3)CC2)c2nn(-c3ccc(Cl)cc3)c(C)c12 | 669 |

| SMILES | RP-LC retention time [s] |
| --- | --- |
| Cn1c(=O)sc2cc(S(=O)(=O)N3CCC(C(=O)N4CCc5ccccc54)CC3)ccc21 | 933 |
| CCOc1ccccc1NC(=O)C1CCc2nc(N3CCOCC3)ncc2C1 (stereo not given) | 777 |
| O=C(NCc1ccco1)c1cnn2c(-c3ccc(Cl)cc3)ccnc12 | 945 |
| CCOc1ccccc1-c1csc(NC(=O)Cc2csc(-c3ccccc3)n2)n1 | 1240 |
| Cc1cccc(Nc2c(-c3ccccc3)nc3ncccn23)c1C | 671 |
| CCOC(=O)Cn1c(C2CC(=O)N(c3ccccc3F)C2)nc2ccccc21 (stereo not given) | 746 |
| O=C(Oc1cccnc1)c1cn(-c2ccc(Cl)cc2)c(=O)c2ccccc12 | 947 |
| CCc1noc([C@@H]2CC(F)(F)CN2S(=O)(=O)c2cccnc2)n1 | 773 |
| CN1CCN(C(CNC(=O)Cc2cccc3ccccc23)c2ccsc2)CC1 (stereo not given) | 564 |
| NC(=O)C1CCN(C(=O)c2snc(-c3ccccn3)c2N)CC1 | 645 |
| COC(=O)c1sc(NC(=O)COc2ccc(Cl)cc2)nc1C | 963 |
| Cc1cc(OCC(=O)Nc2ccc(C(C)C)cc2)nc(N2CCN(c3ccccc3)CC2)n1 | 981 |
| Cc1ccccc1N1C[C@@]23C=C[C@@H](O2)[C@H](C(=O)OC(C)C)[C@@H]3C1=O | 785 |
| O=C(c1cccs1)N1CCC(Nc2ncnc3c2CCC3)C1 (stereo not given) | 547 |
| CNC(=O)N1CC(C)Oc2ccc(C)cc21 (stereo not given) | 765 |
| Cc1cc(N2CCCC2)nc(N2CCN(C(=O)c3ccc(-c4ccccc4)cc3)CC2)n1 | 813 |
| COC(=O)c1ccc(NC(=O)C2CCCN2S(=O)(=O)c2ccc(F)cc2)cc1 (stereo not given) | 641 |
| COc1ccc2c(c1)C1(CCN(C(=O)COc3ccccc3)C1)C(=O)N2 (stereo not given) | 733 |
| CN1c2cc(F)ccc2C(=O)NC12CCN(C(=O)c1cccc(F)c1)CC2 | 769 |
| COC(=O)[C@H](CC1C=NC=N1)NCC12CC3CC(CC(C3)C1)C2 (stereo not given in full) | 607 |
| CCOc1ccccc1N1CCN(Cc2nc3nc(C)cc(N4CCCC4)n3n2)CC1 | 627 |
| O=C(NC1CCCC1)N1CCN(c2nc3cccnc3n(Cc3ccccc3)c2=O)CC1 | 1030 |
